According to patent US7687079B2, “Methods of treating ileus” (priority 2002, dated 2010):

Columns and labels:
Type in all cases: in vivo, mouse
[1] = general observations after intestinal manipulation and CO exposure; settings: mice, CO 250 ppm, 1 hour before and 24 hours after laparotomy
Description: Surgical Manipulation. Mice were anesthetized with inhaled isoflurane and the abdomen opened by midline laparotomy. The small intestine was eventrated and gently compressed along its entire length using moistened sterile cotton applicators. This procedure is designed to simulate “running” of the bowel commonly performed during abdominal surgery in the clinical setting. The bowel was repositioned in the abdominal cavity and the incision closed by two layers of continuous sutures. The duration of the procedure was approximately 15 minutes and the animals moved freely about their cage within 20 minutes of withdrawal of anesthetic.
CO Inhalation Treatment. Mice housed in cages were placed in plexiglass chambers that were continuously ventilated with air or with air containing CO (250 ppm). A sampling port was provided to continuously monitor carbon monoxide concentrations within the chamber. Animals had free access to food and water at all times. Mice were exposed to CO or air 1 hour prior to laparotomy, removed for surgical manipulation, and then returned to the chamber for 24 hours. Mice not undergoing surgery were removed from the chamber for a similar length of time and then returned to the chamber for 24 hours.

[2] = tested on: MPO+ cells infiltrating the muscularis; assay: MPO histochemistry, leukocytes infiltrating intestinal muscularis after IM; settings: control and IM groups, 24 hr
Method: MPO Histochemistry. Muscularis whole-mounts were prepared from the mid-jejunum collected 24 hr post-operatively. Segments of intestine were immersed in KRB in a Sylgard lined glass dish (Midland, Mich.) and pinned without stretching along the mesenteric border. The length and width of the segments were measured with a caliper. The jejunal segment was then opened along the mesenteric border and stretched to 150% of the length and 250% of the width. The mucosa was removed using fine forceps, and the remaining tissue fixed in 100% denatured ethanol for 30 min. […] Tissues were mounted on glass slides using Gel/Mount™ (Biomedia Corp., Foster City, Calif.), cover-slipped and inspected by light microscopy (Nikon Microphot-FXA, Fryer, Huntley, Ill.) at a magnification of 200×. PMN's were counted in five to six adjacent optical fields centered between the mesenteric and antimesenteric borders.

[3] = tested on: mice with ileus induced by manipulation of the small intestine; assay: Example 3 intestinal transit, geometric center after IM; settings: IM+CO mice (250 and 500 ppm), 24 hours
Method: Ileus was induced in mice by gentle manipulation of the small intestine. An incision was made to expose the abdominal cavity of the mouse, and bowel manipulation was performed by gentle poking and prodding of the small intestine (see, e.g., Schwarz et al., Gastroenterology 121(6):1354-1357 (2001)). The incision was subsequently closed, and analyses were performed 24 hours later. Mice were exposed to CO by inhalation (250 and 500 ppm) for 1 hour immediately prior to intestinal manipulation and during the entire 24-hour recovery period. Intestinal contractility was assessed in vitro by measuring circular muscle strip contractions in response to bethanechol (0.3-300 μM) and in vivo by determining intestinal transit from the distribution of orally-fed, fluorescein-labeled dextran and calculating geometric center as described in Example 1 above. HO-1 and IL-10 mRNA expression were determined by SYBR green real time RT-PCR from extracts of muscularis extemae, as described in Example 1 above. Release of nitric oxide (NO), a potent inhibitor of smooth muscle contractility, was estimated by measuring serum total nitrite, also described in Example 1 above.

[C-]#[O+] [CO, carbon monoxide]
mortality or morbidity associated with the CO exposure regime [1]: No mortality or morbidity
magnitude of the leukocyte infiltrate (MPO+ cells) [2]: no effect
geometric center [3]: 6.3±0.8
